What follows are compounds tested against T1, HCV NS3 protease (Hepatitis C virus genotype 1b, UniProt P26663) (assay: Inhibition of NS3 protease (HPLC cleavage assay, NS3/4A complex with Pep4AK, substrate peptide 4AB)). Conditions: Table 1 hexapeptides, cells printed in nM; read-out: IC50.
T1 construct: an NS3/4A complex comprising the NS3 protease domain
Format: biochemical
Method: Buffer solutions containing 80 μM Pep4AK were preincubated for 10 minutes with 10-200 nM protease and reactions were started by addition of substrate. Six duplicate data points at different substrate concentrations were used to calculate kinetic parameters. Incubation times were chosen in order to obtain <7% substrate conversion and reactions were stopped by addition of 40 μl 1% TFA. Cleavage of peptide substrates was determined by HPLC using a Merck-Hitachi chromatograph equipped with an autosampler. 80 μl samples were injected on a Lichrospher C18 reversed phase cartridge column (4×74 mm, 5 μm, Merck) and fragments were separated using a 10-40% acetonitrile gradient a 5%/min using a flow rate of 2.5 ml/min. Peak detection was accomplished by monitoring both the absorbance at 220 nm and tyrosine fluorescence (λex=260 nm, λem=305 nm). Cleavage products were quantitated by integration of chromatograms with respect to appropriate standards. Kinetic parameters were calculated from nonlinear least-squares fit of initial rates as a function of substrate concentration with the help of a Kaleidagraph software, assuming Michaelis-Menten kinetics.
Ki values of peptide inhibitors were calculated from substrate titration experiments performed in the presence of increasing amounts of inhibitor. Experimental data sets were simultaneously fitted to eq.1 using a multicurve fit macro with the help of a Sigmaplot software: V=(VmaxS)/(Km(1+[…])+S); (eq.1)
Alternatively, Ki values were derived from IC50 values, calculated using a four-parameter logistic function, according to eq.2: IC50−(1+S/Km)Ki (eq.2)

T1 sequence (P26663 1027-1208, other chains not shown): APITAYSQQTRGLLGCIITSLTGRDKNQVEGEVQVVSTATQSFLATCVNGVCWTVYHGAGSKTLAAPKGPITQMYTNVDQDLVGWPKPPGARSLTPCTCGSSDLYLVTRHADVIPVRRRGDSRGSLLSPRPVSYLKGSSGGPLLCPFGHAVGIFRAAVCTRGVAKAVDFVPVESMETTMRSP

In the case of `CC(=O)N[C@@H](CC(=O)O)C(=O)N[C@@H](CCC(=O)O)C(=O)N[C@H](C(=O)N[C@@H](CCC(=O)O)C(=O)N[C@@H](CC1CCCCC1)C(=O)NC(C=O)CC(F)F)C(c1ccccc1)c1ccccc1` (single isomer, unassigned) [Compound 1c (L)], the IC50 is reported as 0.5 nM.

Same assay, conditions: Table 3 capped dipeptide keto acids; read-out: IC50

Compared with `CC(C)C[C@H](NC(=O)OCc1ccccc1)C(=O)NC(CC(F)F)C(=O)C(=O)O` (single isomer, unassigned) [Compound 7a], `CC(C)C[C@H](NC(=O)CN(CC(=O)O)C(=O)OCc1ccccc1)C(=O)NC(CC(F)F)C(=O)C(=O)O` (single isomer, unassigned) [Compound 7i] is 3.7-fold lower in IC50: 74000 nM for the first, 20000 nM for the second. The second is the more potent here.

`CCCCC(=O)N[C@@H](CC(C)C)C(=O)NC(CC(F)F)C(=O)C(=O)O` (single isomer, unassigned) [Compound 7b] and `CC(C)C[C@H](NC(=O)Cc1cccs1)C(=O)NC(CC(F)F)C(=O)C(=O)O` (single isomer, unassigned) [Compound 8f] are within 1.5-fold of each other in IC50: 56000 nM for the first, 42000 nM for the second.

First: CC(C)C[C@H](NC(=O)CC1(CC(=O)O)CCCC1)C(=O)NC(CC(F)F)C(=O)C(=O)O (single isomer, unassigned) [Compound 7l]
Second: CC(C)C[C@H](NC(=O)CC1(CC(=O)O)OCCO1)C(=O)NC(CC(F)F)C(=O)C(=O)O (single isomer, unassigned) [Compound 7p]
The IC50 of the first is 15-fold lower: 1000 nM for the first, 15000 nM for the second. The first is the more potent here.

First: CC(C)C[C@H](NC(=O)C1CCCCC1C(=O)O)C(=O)NC(CC(F)F)C(=O)C(=O)O (single isomer, unassigned) [Compound 8a]
Second: CC(C)C[C@H](NC(=O)Cc1ccccc1C(=O)O)C(=O)NC(CC(F)F)C(=O)C(=O)O (single isomer, unassigned) [Compound 8e]
The IC50 of the first is 2.5-fold higher: 32000 nM for the first, 13000 nM for the second. The second is the more potent here.

First: CC(C)C[C@H](NC(=O)Cc1ccccc1CC(=O)O)C(=O)NC(CC(F)F)C(=O)C(=O)O (single isomer, unassigned) [Compound 8b]
Second: CC(C)C[C@H](NC(=O)c1ccccc1-c1ccccc1C(=O)O)C(=O)NC(CC(F)F)C(=O)C(=O)O (single isomer, unassigned) [Compound 8g]
The IC50 of the first is 2-fold higher: 8000 nM for the first, 4000 nM for the second. The second is the more potent here.

Compared with `CC(C)C[C@H](NC(=O)C(Oc1cccc(C(=O)O)c1)c1ccccc1)C(=O)NC(CC(F)F)C(=O)C(=O)O` (single isomer, unassigned) [Compound 8h], `CC(C)C[C@H](NC(=O)[C@H](O)c1cccs1)C(=O)NC(CC(F)F)C(=O)C(=O)O` (single isomer, unassigned) [Compound 8s] is 3-fold higher in IC50: 6000 nM for the first, 18000 nM for the second. The first is the more potent here.

Same assay, conditions: Table 4 indoline keto acids and related; read-out: IC50

First: CC(C)C[C@H](NC(=O)C1Cc2ccccc2N1)C(=O)NC(CC(F)F)C(=O)C(=O)O (single isomer, unassigned) [Compound 9a]
Second: COc1ccc2c(c1)NC(C(=O)N[C@@H](CC(C)C)C(=O)NC(CC(F)F)C(=O)C(=O)O)C2 (single isomer, unassigned) [Compound 10a]
The IC50 of the first is 2-fold higher: 50000 nM for the first, 25000 nM for the second.

`CCC(CC)CC1(C(=O)N[C@@H](CC(C)C)C(=O)NC(CC(F)F)C(=O)C(=O)O)Cc2ccccc2N1` (single isomer, unassigned) [Compound 9g] and `CC(C)C[C@H](NC(=O)C1(CC2CC2)Cc2ccccc2N1)C(=O)NC(CC(F)F)C(=O)C(=O)O` (single isomer, unassigned) [Compound 9i] are within 1.5-fold of each other in IC50: 15000 nM for the first, 20000 nM for the second.

Compared with `CC(C)C[C@H](NC(=O)C1(Cc2ccccc2Cl)Cc2ccccc2N1)C(=O)NC(CC(F)F)C(=O)C(=O)O` (single isomer, unassigned) [Compound 9q], `CC(C)C[C@H](NC(=O)C1(Cc2cccc(C(=O)O)c2)Cc2ccccc2N1)C(=O)NC(CC(F)F)C(=O)C(=O)O` (single isomer, unassigned) [Compound 9u] is 6.2-fold lower in IC50: 5000 nM for the first, 800 nM for the second.

`COc1ccc2c(c1)NC(CC(C)C)(C(=O)N[C@@H](CC(C)C)C(=O)NC(CC(F)F)C(=O)C(=O)O)C2` (single isomer, unassigned) [Compound 10b] and `CC(C)C[C@H](NC(=O)C1Cc2ccc(OC3CCCC3)cc2N1)C(=O)NC(CC(F)F)C(=O)C(=O)O` (single isomer, unassigned) [Compound 10e] are within 1.5-fold of each other in IC50: 24000 nM for the first, 18000 nM for the second.
